Calls of active or inactive are those of the source.
What was measured:
[1] = microbe, parasite or virus in culture; assay type: functional; settings: Mycobacterium tuberculosis
[2] = target: T1, Corticotropin-releasing factor receptor 2/Corticotropin-releasing factor-binding protein (Homo sapiens, UniProt P24387+Q13324); assay: Dose Response confirmation of uHTS hits for small molecule antagonists of the CRF-binding protein and CRF-R2 receptor complex.; assay type: functional; settings: read-out: IC50_Mean
T1 sequence (Q13324 whole entry): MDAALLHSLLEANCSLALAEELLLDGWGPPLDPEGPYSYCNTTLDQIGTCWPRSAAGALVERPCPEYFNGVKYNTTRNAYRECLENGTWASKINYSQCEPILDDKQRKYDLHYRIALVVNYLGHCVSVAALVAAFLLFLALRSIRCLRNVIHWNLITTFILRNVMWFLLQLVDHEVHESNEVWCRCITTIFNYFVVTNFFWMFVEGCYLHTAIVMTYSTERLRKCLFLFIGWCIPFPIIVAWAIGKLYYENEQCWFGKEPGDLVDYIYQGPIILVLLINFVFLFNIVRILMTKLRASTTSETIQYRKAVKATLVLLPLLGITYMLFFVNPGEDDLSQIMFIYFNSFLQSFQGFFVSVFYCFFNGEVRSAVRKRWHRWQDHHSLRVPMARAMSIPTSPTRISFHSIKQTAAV
T1 sequence (P24387 whole entry): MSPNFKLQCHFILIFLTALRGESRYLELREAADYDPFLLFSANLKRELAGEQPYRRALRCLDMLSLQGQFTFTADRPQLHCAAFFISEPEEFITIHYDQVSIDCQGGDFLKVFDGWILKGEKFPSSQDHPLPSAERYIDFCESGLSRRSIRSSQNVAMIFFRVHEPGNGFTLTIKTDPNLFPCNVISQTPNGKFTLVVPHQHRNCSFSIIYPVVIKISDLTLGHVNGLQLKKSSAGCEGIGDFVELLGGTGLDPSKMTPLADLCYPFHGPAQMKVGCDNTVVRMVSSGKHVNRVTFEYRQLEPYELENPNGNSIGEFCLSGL

[3] = HEp-2 cell cytotoxicity, dose response, cytotoxicity control for RSV inhibitor project, HTS (AID 2410); assay type: functional; settings: human respiratory syncytial virus
[4] = target: T1, Corticotropin-releasing factor receptor 2/Corticotropin-releasing factor-binding protein; assay: activators of CRF receptor 2 with binding protein – uHTS hits, confirmation (AID 602473); assay type: functional; settings: read-out: EC50_Mean
Cytochrome P450 3A4 [5] = target: T2, Cytochrome P450 3A4 (Homo sapiens, UniProt P08684)
Cytochrome P450 2C9 = Cytochrome P450 2C9 (Homo sapiens, UniProt P11712)
[6] = inhibitors of firefly luciferase expression or activity, dose response, H4 neuroglioma cells, luminescence (AID 1990); assay type: functional, cell-based
[7] = Luminescence Cell-Based Dose Response HTS to Identify Inhibitors of 5'UTR Stem-Loop Driven Prion Protein mRNA Translation in H4 Neuroglioblastoma Cells. [Related pubchem assays: 1827 (Project Summary), 1813 (Primary HTS)]; assay type: functional
[8] = inhibitors of SNCA 5'UTR-driven reporter translation, confirmation, H4 neuroglioma cells, luminescence (AID 1988); assay type: functional, cell-based
[9] = target: T3, Calpain-2 catalytic subunit (Sus scrofa, UniProt P43367); assay: pig calpain II inhibitor potency, dose response, biochemical, fluorogenic peptide substrate (AID 1420); assay type: functional
T3 sequence (P43367 whole entry): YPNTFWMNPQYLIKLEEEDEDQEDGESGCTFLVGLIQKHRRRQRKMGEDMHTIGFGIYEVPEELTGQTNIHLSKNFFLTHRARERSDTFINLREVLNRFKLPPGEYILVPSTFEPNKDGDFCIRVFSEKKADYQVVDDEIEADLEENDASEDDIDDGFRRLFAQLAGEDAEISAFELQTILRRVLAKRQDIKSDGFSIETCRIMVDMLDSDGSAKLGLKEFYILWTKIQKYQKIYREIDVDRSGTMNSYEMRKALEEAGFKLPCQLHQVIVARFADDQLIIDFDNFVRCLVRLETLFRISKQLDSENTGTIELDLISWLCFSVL

INS1 = assay: beta cell apoptosis inhibitors, cytokine rescue, dose response, luminescence, retest (AID 449756); assay type: functional, cell-based; settings: Rattus norvegicus;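 note: cell death triggered by IL-1 beta plus TNF-alpha plus IFN-gamma mixture; protective hits raise ATP signal compared with cytokine alone wells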
[10] = target: Luciferin 4-monooxygenase (Photinus pyralis, UniProt P08659); assay: firefly luciferase enzyme inhibitors, dose response, biochemical, luminescence (AID 1891)
[11] = Luminescence Cell-Based Dose Confirmation HTS to Identify Inhibitors of Platelet Dense Granule Release. [Related pubchem assays: 1663 (Primary HTS), 1678 (Summary of Project)]; assay type: functional
Cytochrome P450 2C19 = Cytochrome P450 2C19 (Homo sapiens, UniProt P33261); assay: Cytochrome panel assay with activity outcomes. Panel member name: p450-cyp2c19 Compounds with AC50 equal or less than 10 uM are considered active; assay type: functional; settings: read-out: AC50
Cytochrome P450 2D6 = Cytochrome P450 2D6 (Homo sapiens, UniProt P10635);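 note: CYP2D6 member of a cytochrome P450 panel assay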
Cytochrome P450 3A4 [12] = target: T2, Cytochrome P450 3A4; settings: Potency
Streptokinase A = target: T4, Streptokinase A (Streptococcus pyogenes serotype M1, UniProt P10520); assay: S. pyogenes streptokinase expression inhibitors, potency, dose response, plasminogen activation absorbance, OD405 (AID 1914); assay type: functional, Streptococcus pyogenes M1 GAS;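 note: secreted streptokinase activity via plasminogen activation per viability signal from cell pellet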
T4 sequence (P10520 whole entry): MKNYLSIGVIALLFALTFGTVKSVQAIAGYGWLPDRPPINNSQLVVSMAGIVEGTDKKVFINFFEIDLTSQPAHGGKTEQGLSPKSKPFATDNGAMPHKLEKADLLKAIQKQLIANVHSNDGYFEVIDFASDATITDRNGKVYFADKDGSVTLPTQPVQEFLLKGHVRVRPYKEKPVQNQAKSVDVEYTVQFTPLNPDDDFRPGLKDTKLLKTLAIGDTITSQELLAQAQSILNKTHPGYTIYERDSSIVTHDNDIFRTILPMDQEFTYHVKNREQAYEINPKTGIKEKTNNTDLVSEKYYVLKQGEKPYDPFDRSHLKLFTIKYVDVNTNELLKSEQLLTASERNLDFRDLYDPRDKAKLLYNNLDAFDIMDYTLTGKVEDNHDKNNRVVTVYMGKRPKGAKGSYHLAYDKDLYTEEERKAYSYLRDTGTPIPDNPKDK

[13] = tested on: Streptococcus sp. 'group A'; assay: growth inhibition of control SK(-) GAS strain, dose response, counter-screen for streptokinase expression inhibitor project, luminescence, kanamycin, BacTiterGlo, confirmation (AID 1900); assay type: functional, organism-based
Streptococcus = assay: Group A Streptococcus viability loss, dose response, counter-screen for streptokinase expression inhibitor project, luminescence, BacTiterGlo (AID 1915); assay type: functional, organism-based;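 note: potency for reduction of bacterial viability or growth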
Cytochrome P450 1A2 = target: T5, Cytochrome P450 1A2 (Homo sapiens, UniProt P05177);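 note: PubChem cytochrome P450 panel assay, CYP1A2 panel member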
T5 sequence (P05177 whole entry): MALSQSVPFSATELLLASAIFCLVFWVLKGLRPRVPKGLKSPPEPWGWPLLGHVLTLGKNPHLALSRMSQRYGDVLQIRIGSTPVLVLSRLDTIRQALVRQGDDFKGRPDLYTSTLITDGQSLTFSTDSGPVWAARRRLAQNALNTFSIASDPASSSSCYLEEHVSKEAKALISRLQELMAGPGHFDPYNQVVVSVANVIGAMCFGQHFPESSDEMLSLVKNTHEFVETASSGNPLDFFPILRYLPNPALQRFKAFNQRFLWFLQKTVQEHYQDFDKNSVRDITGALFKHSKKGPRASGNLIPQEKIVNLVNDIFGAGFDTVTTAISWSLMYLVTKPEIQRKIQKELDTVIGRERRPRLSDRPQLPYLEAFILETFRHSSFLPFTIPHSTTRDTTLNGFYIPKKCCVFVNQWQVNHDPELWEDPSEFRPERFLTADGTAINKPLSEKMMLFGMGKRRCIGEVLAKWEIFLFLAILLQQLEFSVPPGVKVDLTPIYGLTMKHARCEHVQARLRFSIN

[14] = Luminescence Cell-Based Dose Retest to Confirm Inhibitors of Cancer Stem Cells. [Related pubchem assays (depositor defined):AID2717, AID2721]; assay type: functional; settings: Homo sapiens

T2 sequence (P08684 whole entry): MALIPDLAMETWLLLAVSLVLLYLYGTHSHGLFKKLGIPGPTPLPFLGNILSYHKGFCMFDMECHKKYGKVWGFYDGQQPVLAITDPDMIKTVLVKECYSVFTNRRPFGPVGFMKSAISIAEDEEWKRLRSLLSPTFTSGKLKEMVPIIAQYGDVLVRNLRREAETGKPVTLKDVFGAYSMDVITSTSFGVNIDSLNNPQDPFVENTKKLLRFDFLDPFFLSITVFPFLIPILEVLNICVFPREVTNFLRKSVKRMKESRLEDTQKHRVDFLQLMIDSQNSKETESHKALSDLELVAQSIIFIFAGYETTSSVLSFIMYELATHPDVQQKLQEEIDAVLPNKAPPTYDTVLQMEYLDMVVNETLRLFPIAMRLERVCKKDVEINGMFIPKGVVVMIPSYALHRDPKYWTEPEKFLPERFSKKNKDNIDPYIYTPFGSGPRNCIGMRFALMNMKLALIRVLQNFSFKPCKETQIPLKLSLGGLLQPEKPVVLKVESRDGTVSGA
Sequence of Cytochrome P450 2D6 (P10635 whole entry): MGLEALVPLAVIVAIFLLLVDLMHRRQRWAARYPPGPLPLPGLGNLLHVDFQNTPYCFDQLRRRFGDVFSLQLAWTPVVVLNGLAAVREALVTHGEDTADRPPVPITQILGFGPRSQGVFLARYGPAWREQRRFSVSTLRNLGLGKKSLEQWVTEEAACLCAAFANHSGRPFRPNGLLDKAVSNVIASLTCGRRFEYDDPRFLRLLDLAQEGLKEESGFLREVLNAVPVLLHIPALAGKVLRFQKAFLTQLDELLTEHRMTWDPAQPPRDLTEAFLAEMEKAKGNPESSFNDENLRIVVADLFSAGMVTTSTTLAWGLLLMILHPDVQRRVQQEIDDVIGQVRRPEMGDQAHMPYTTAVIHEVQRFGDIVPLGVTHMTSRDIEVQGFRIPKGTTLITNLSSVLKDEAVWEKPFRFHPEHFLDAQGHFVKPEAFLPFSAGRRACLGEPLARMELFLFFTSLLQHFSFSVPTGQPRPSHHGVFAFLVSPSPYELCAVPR
Sequence of Cytochrome P450 2C19 (P33261 whole entry): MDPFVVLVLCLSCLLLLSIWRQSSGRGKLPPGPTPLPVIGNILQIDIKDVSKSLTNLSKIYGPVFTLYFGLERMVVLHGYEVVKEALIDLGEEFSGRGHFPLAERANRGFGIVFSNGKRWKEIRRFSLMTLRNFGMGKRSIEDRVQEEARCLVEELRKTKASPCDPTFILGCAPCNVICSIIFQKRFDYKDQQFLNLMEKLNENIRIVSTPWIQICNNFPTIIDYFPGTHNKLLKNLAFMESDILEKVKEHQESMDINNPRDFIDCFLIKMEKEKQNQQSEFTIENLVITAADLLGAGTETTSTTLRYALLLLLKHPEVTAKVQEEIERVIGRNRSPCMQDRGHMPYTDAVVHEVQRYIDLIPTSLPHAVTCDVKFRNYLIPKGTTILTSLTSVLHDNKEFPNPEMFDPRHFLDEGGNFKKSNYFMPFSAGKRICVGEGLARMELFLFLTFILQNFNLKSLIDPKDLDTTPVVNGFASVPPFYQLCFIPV
Sequence of Cytochrome P450 2C9 (P11712 whole entry): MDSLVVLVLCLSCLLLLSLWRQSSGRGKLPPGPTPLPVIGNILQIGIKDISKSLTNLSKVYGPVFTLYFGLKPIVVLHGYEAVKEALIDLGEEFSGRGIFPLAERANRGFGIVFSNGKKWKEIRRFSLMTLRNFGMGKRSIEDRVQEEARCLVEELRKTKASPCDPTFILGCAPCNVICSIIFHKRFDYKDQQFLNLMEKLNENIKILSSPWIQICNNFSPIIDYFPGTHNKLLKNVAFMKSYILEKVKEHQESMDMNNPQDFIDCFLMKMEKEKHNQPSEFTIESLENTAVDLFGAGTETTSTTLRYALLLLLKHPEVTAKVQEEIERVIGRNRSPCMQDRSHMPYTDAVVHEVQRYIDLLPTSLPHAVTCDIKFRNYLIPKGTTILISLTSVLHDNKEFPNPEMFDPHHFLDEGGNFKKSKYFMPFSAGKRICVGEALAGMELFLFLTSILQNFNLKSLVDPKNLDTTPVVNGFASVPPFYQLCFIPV
Sequence of Luciferin 4-monooxygenase (P08659 whole entry): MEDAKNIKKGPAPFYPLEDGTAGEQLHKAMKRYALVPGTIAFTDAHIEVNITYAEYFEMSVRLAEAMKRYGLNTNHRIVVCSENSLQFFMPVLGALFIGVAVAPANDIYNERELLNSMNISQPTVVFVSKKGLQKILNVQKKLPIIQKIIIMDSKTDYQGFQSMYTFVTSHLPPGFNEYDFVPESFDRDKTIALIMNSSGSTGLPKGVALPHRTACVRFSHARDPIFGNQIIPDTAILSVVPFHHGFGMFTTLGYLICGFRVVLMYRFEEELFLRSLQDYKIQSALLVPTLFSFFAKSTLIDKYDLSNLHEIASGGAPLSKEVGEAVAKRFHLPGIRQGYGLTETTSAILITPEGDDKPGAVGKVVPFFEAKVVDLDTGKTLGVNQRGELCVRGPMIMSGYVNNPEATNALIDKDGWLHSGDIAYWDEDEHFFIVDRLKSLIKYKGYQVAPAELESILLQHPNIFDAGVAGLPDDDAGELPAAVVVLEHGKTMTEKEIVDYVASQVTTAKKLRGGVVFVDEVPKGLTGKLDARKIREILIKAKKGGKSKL

c1ccc(CN2CCC3(CCCc4ccccc43)CC2)cc1
CC50 [1]: > 40 µM (active)

FC(F)(F)c1ccccc1-c1nc(-c2ccncc2)no1
IC50 [2]: > 47.1 µM (inactive)
CC50 [3]: 30.5 µM (active)
EC50 [4]: > 53 µM (inactive)

Cc1ccc(C)n1NC(=O)c1ccccc1
AC50 (Cytochrome P450 3A4 [5]): 31.6 µM (inconclusive)
AC50 (Cytochrome P450 2C9): 0.141 µM (inconclusive)

CC(C)c1ccc(/C=C/C2=NNC(=O)CC2)cc1
EC50 [6]: < 0.1 µM (active)
EC50 [7]: 11.5 µM (active)
EC50 [8]: 0.13 µM (active)
IC50 [9]: 14.3 µM (not active)

Cc1ccccc1OC1C(=O)N(Cc2ccc3c(c2)OCO3)C1c1sccc1C (centres undefined)
AC50 (INS1): 11.4 µM (active)

COc1ccc2nc(NN=C3C(=O)CC(C)(C)CC3=O)sc2c1
CC50 [1]: 26.2 µM (active)

O=C(c1ccc(Oc2ccccc2)cc1)c1nc2c(n1O)CCCC2
IC50 [9]: 12.9 µM (not active)

CCN(c1cccc(C)c1)c1nc2ccsc2c(=O)s1
IC50 [2]: > 47.1 µM (inactive)
EC50 [4]: > 53 µM (inactive)

CCc1nnc(NC(=O)[C@@H](NC(=O)c2cc(OC)cc(OC)c2)C(C)C)s1
EC50 [10]: > 112 µM (not active)
EC50 [11]: > 112 µM (not active)
IC50 [9]: 49.9 µM (not active)

O=C(/C=C/c1ccccc1[N+](=O)[O-])N1CCOCC1
IC50 [2]: > 47.1 µM (inactive)
EC50 [4]: > 53 µM (inactive)

CC(=O)c1ccccc1NC(=O)Cn1c(=O)cnc2ccccc21
IC50 [2]: > 47.1 µM (inactive)
EC50 [4]: > 53 µM (inactive)

CCc1cccc2c(SCC(=O)NCC3CCCO3)nc(-c3ccc(F)cc3)nc12 (centres undefined)
IC50 [9]: 26.2 µM (not active)

Cc1ccc(-c2nc(-c3nccc4ccccc34)oc2-c2ccccc2)cc1
AC50 (Cytochrome P450 3A4 [5]): 5.01 µM (inconclusive)
AC50 (Cytochrome P450 2C19): 5.01 µM (inconclusive)

O=C(COC(=O)COc1ccc(Cl)cc1Br)NCc1cccs1
IC50 [2]: > 47.1 µM (inactive)
EC50 [4]: > 53 µM (inactive)

c1cc2c(cc1C1CCCCC1)c1c3n2CCN[C@H]3CCC1
AC50 (Cytochrome P450 2D6): 12.6 µM (inconclusive)
AC50 (Cytochrome P450 3A4 [5]): 31.6 µM (inconclusive)
AC50 (Cytochrome P450 2C9): 20 µM (inconclusive)

O=C1NN=C(c2ccc(Cl)cc2)CC1c1cccc(Br)c1 (centres undefined)
IC50 [9]: 12.5 µM (not active)

CCCCCCC(=O)N1C/C=C\C(c2ccc(OC)cc2)N(Cc2ccc(F)cc2)C(=O)[C@H]1Cc1ccccc1 (some centres undefined)
EC50 [6]: > 120 µM (not active)
EC50 [7]: > 120 µM (not active)
EC50 [8]: 9.71 µM (active)
AC50 (INS1): 6.16 µM (active)

CCCC1Cc2c(sc(NC(=S)NC(=O)c3ccccc3)c2C#N)CO1 (centres undefined)
IC50 [9]: 31 µM (not active)

N#Cc1ccc(C23CC4(C2)[C@H](CN(CC2CCCCC2)[C@@H]4c2ccccc2)C3c2ccc(C(F)(F)F)cc2)cc1 (some centres undefined)
AC50 (Cytochrome P450 3A4 [12]): 15.8 µM (inconclusive)

Cc1ccccc1OCCNc1ccc(C(F)(F)F)cc1[N+](=O)[O-]
AC50 (Cytochrome P450 2D6): 5.01 µM (inconclusive)
AC50 (Cytochrome P450 3A4 [5]): 31.6 µM (inconclusive)
AC50 (Cytochrome P450 2C19): 0.316 µM (inconclusive)

Nc1ccc(Nc2ccc([N+](=O)[O-])cc2[N+](=O)[O-])cc1
AC50 (INS1): 59.4 µM (active)

Clc1ccc2nc(-c3ccccn3)c(Nc3ccc4c(c3)OCO4)n2c1
EC50 (Streptokinase A): > 150 µM (not active)
EC50 [13]: 6.89 µM (active)
EC50 (Streptococcus): 12.7 µM (active)
IC50 [9]: 0.608 µM (not active)

Cc1ccc(-c2nnc(C)c(N3CC(C)OC(C)C3)n2)cc1 (centres undefined)
AC50 (Cytochrome P450 1A2): 4.47 µM (inconclusive)
AC50 (Cytochrome P450 3A4 [5]): 5.01 µM (inconclusive)

c1ccc(Nc2ccc3ccccc3c2)cc1
AC50 (Cytochrome P450 3A4 [12]): 25.1 µM (inconclusive)

CCNC(=O)NCc1c(C)c(C)n(Cc2ccccc2)c1-n1cccc1
IC50 [9]: 8.86 µM (not active)

CC(NC(=O)CCCCCN1C(=O)c2ccccc2C1=O)c1ccc2c(c1)CCCC2 (centres undefined)
IC50 [9]: 10.7 µM (not active)

Cc1ccccc1C(=O)Nc1ccc(-c2nc3cc(C(=O)c4ccccc4)ccc3[nH]2)cc1
AC50 [14]: 1.36 µM (active)
CC50 [1]: > 40 µM (active)
CC50 [3]: 6.02 µM (active)

Cc1nc(SCC(=O)NC(C)c2ccccc2)c2oc3ccccc3c2n1 (centres undefined)
IC50 [9]: < 0.4 µM (not active)

Cc1ccc(-c2csc(NC(=S)NC(=O)c3ccco3)n2)cc1
IC50 [9]: 4.46 µM (not active)

O=C(COC(=O)c1ccncc1)Nc1cc(S(=O)(=O)N2CCOCC2)ccc1Cl
IC50 [2]: > 47.1 µM (inactive)
EC50 [4]: > 53 µM (inactive)

COc1ccc(N(C(=O)c2ccco2)C(C(=O)NC2CCCC2)c2ccc(N3CCOCC3)cc2)c(OC)c1 (centres undefined)
IC50 [2]: > 47.1 µM (inactive)
EC50 [4]: > 53 µM (inactive)

COc1ccc2[nH]c3c(c2c1)CCN1C(=O)C(CC(=O)NCCc2ccccn2)C[C@H](C(=O)N(C(C)C)C(C)C)[C@@]31C (some centres undefined)
IC50 [2]: > 47.1 µM (inactive)
EC50 [4]: > 53 µM (inactive)

CCCCCC(=O)NNC(=O)c1ccc(F)cc1
IC50 [2]: > 47.1 µM (inactive)
EC50 [4]: > 53 µM (inactive)

O=C(CNc1ccccc1)N/N=C/c1c(O)ccc2ccccc12
EC50 [13]: 1.02 µM (active)
EC50 (Streptococcus): 0.939 µM (active)
AC50 (INS1): 3.29 µM (active)

O=C(N/N=C\c1ccc(Sc2ccccn2)o1)c1cccc(Br)c1
AC50 (Cytochrome P450 2D6): 28.2 µM (inconclusive)
AC50 (Cytochrome P450 3A4 [5]): 22.4 µM (inconclusive)

CCC1=C(OC(=O)N(CC)CC)N2C(=O)O/C(=N\CCc3c[nH]c4ccccc34)[C@]2(Cc2ccccc2)[C@H]2C1=CC[C@H]1C(=O)NC(=O)[C@H]12
CC50 [1]: > 40 µM (active)

Reference: ChEMBL document CHEMBL1201862, “PubChem BioAssay data set” (2004)
